# Laboratory results as given in patent US20080021056A1, “Fused, Tricyclic Sulfonamide Inhibitors of Gamma Secretase” (priority 2006, published 2008).
# “And” between values parts separate entries of the source, which are not always exact repeats. Equal values may be shown once.
# Biological target: T1, gamma-secretase (Homo sapiens, UniProt P49768)
# T1 construct: partially purified extract of IMR-32 cell membranes as the gamma-secretase enzyme preparation; endogenous in cells; host or cells: IMR-32 cell membranes (partially purified extract)
# Assay: Gamma-secretase APP enzyme assay
# Assay type: biochemical
# Settings: cleavage of MBP-C125 Swe substrate at the Aβ40 site; partially purified extract of IMR-32 cell membranes; ELISA
# From the text: The gamma-secretase APP enzyme assay was designed to measure the specific proteolytic cleavage of an APP substrate (MBP-C125 Swe fusion protein) at the Aβ40 site. The assay used a partially purified extract of IMR-32 cell membranes as the gamma-secretase enzyme preparation and a recombinant fusion protein containing the C-terminal 125 amino acids of the Swedish variant of the APP (MBP-C125swe) as the substrate. This assay involved two steps beginning with the enzymatic reaction generating a cleavage product that was captured with an immobilized antibody specific for the neo-epitope Aβ40 site. The captured cleavage product was then detected in a sandwich ELISA assay with a biotinylated reporter antibody that is specific to Aβ (17-28). Streptavidin-linked alkaline phosphatase was then added that would generate a fluorescent signal proportional to the amount of cleavage product. This assay was used to discover small molecule inhibitors of gamma-secretase.
# Briefly, a 149 mg/ml solution of BIGCHAP detergent was made with water at 42° C. and then rotated for 30 minutes at the same temperatures This warmed solution of BigCHAPS (N,N-Bis(3-D-gluconamidopropyl)cholamide) detergent was used to dissolve Brain Extract Type-V (lipid containing a minimum of 40% phosphatidylethanolamine) from Signa (St. Louis, Mo.) to a concentration of 8 mg/ml. This solution containing BigCHAPS and lipid at 8 mg/ml is then diluted to 0.53 mg/ml lipid with a pre-warmed solution of Hepes and sodium chloride. This final solution containing Hepes buffer, sodium chloride, BigCHAPS detergent and lipid is used to create working solutions of both gamma-secretase (25 Units) and the MBP-C125 substrate (0.05 mg/ml).
# Gamma-secretase was then added to a 96-well micro-titre plate and then incubated with various concentrations of inhibitor for 30 minutes at 37° C. MBPC125 substrate was then added to initiate the reaction that would run for two hours at 37° C. The reaction was quenched with the addition of SDS to a final concentration of 0.1% and then 100 μl of the reaction mixture was transferred to a capture ELISA plate and incubated overnight at 4° C. Detection of the cleavage product was performed using a standard sandwich ELISA assay and quantified using a six point standard curve.
row,Compound,IC50
1,"CC1c2cn[nH]c2-c2cc(F)c(F)cc2N1S(=O)(=O)c1ccc(Cl)s1 (centres unmarked) [5-(5-chlorothiophen-2-ylsulfonyl)-7,8-difluoro-4-methyl-4,5-dihydro-1H-pyrazolo[4,3-c]quinoline]",0.1 to 100 nM
2,"O=c1c2cn[nH]c2c2ccccc2n1S(=O)(=O)c1ccc(Cl)cc1 [5-[(4-chlorophenyl)sulfonyl]-1,5-dihydro-4H-pyrazolo[4,3-c]quinolin-4-one]",101 to 500 nM
3,"Cc1n[nH]c2c1CN(S(=O)(=O)c1ccc(Cl)cc1)c1ccccc1-2 [5-[(4-chlorophenyl)sulfonyl]-3-methyl-4,5-dihydro-1H-pyrazolo[4,3-c]quinoline]",1000 to 10000 nM
4,"O=S(=O)(c1ccc(Cl)cc1)N1Cc2c[nH]nc2-c2ccccc21 [5-[(4-chlorophenyl)sulfonyl]-4,5-dihydro-1H-pyrazolo[4,3-c]quinoline]",0.1 to 100 nM
5,"O=S(=O)(c1ccc(Cl)cc1)N1Cc2c(O)n[nH]c2-c2ccccc21 [5-[(4-chlorophenyl)sulfonyl]-4,5-dihydro-1H-pyrazolo{4,3-c]quinolin-3-ol]",1000 to 10000 nM
6,"CC1c2cn[nH]c2-c2ncccc2N1S(=O)(=O)c1ccc(Cl)cc1 (centres unmarked) [5-[(4-chlorophenyl)sulfonyl]-4-methyl-4,5-dihydro-1H-pyrazolo[4,3-c]-1,5-naphthyridine]",0.1 to 100 nM
7,"O=S(=O)(c1ccc(Cl)cc1)N1Cc2c[nH]nc2-c2ccc(F)cc21 [5-[(4-chlorophenyl)sulfonyl]-7-fluoro-4,5-dihydro-2H-pyrazolo[4,3-c]quinoline]",0.1 to 100 nM
8,"COc1ccc2c(c1)N(S(=O)(=O)c1ccc(Cl)cc1)C(C)c1c[nH]nc1-2 (centres unmarked) [5-[(4-chlorophenyl)sulfonyl]-7-methoxy-4-methyl-4,5-dihydro-1H-pyrazolo[4,3-c]quinoline]",0.1 to 100 nM
9,"O=S(=O)(c1ccc(Cl)cc1)N1Cc2c[nH]nc2-c2cc(F)ccc21 [5-[(4-chlorophenyl)sulfonyl]-8-fluoro-4,5-dihydro-2H-pyrazolo[4,3-c]quinoline]",0.1 to 100 nM
10,"COc1cccc2c1-c1[nH]ncc1C(C)N2S(=O)(=O)c1ccc(Cl)cc1 (centres unmarked) [5-[(4-chlorophenyl)sulfonyl]-9-methoxy-4-methyl-4,5-dihydro-1H-pyrazolo[4,3-c]quinoline]",1000 to 10000 nM
11,"O=S(=O)(c1ccc(Cl)cc1)N1Cc2c[nH]nc2-c2c(F)cccc21 [5-[(4-chlorophenyl}sulfonyl]-9-fluoro-4,5-dihydro-2H-pyrazolo[4,3-c]quinoline]",0.1 to 100 nM
12,"O=S(=O)(c1ncc(Cl)s1)N1c2cc(F)c(F)cc2-c2n[nH]cc2C1C1CC1 (centres unmarked) [5-chloro-2-(4-cyclopropyl-7,8-difluoro-1H-pyrazolo[4,3-c]quinolin-5(4H)-ylsulfonyl)thiazole]",0.1 to 100 nM
13,"O=S(=O)(c1ccc(C(F)(F)F)cc1)N1c2ccccc2-c2[nH]ncc2C12CC2 [5′-(4-(trifluoromethyl)phenylsulfonyl)-1′,5′-dihydrospiro[cyclopropane-1,4′-pyrazolo[4,3-c]quinoline]]",0.1 to 100 nM
14,"O=S(=O)(c1ccc(Cl)cc1)N1c2ccccc2-c2n[nH]cc2C12CC2 [5′-(4-chlorophenylsulfonyl)-2′,5′-dihydrospiro[cyclopropane-1,4′-pyrazolo[4,3-c]quinoline]]",0.1 to 100 nM
15,"CCC1N(S(=O)(=O)c2ccc(Cl)cc2)c2ccccc2-c2ccnn21 (centres unmarked) [6-(4-chlorophenylsulfonyl)-5-ethyl-5,6-dihydropyrazolo[1,5-c]quinazoline]",101 to 500 nM
16,"O=S(=O)(c1ccc(C(F)(F)F)cc1)N1c2cc(F)c(F)cc2-c2[nH]ncc2C1c1cccnc1 (centres unmarked) [7,8-difluoro-4-(pyridin-3-yl)-5-(4-(trifluoromethyl)phenylsulfonyl)-4,5-dihydro-1H-pyrazolo[4,3-c]quinoline]",0.1 to 100 nM
17,"CC(C)C1c2c[nH]nc2-c2cc(F)c(F)cc2N1S(=O)(=O)c1ccc(C(F)(F)F)cc1 (centres unmarked) [7,8-difluoro-4-isopropyl-5-(4-(trifluoromethyl)phenylsulfonyl)-4,5-dihydro-2H-pyrazolo[4,3-c]quinoline]",0.1 to 100 nM
18,"CC1c2c[nH]nc2-c2cc(F)c(F)cc2N1S(=O)(=O)c1cccs1 (centres unmarked) [7,8-difluoro-4-methyl-5-(thiophen-2-ylsulfonyl)-4,5-dihydro-2H-pyrazolo[4,3-c]quinoline]",0.1 to 100 nM

row,Compound,IC50
1,"O=S(=O)(c1ccc(C(F)(F)F)cc1)N1Cc2c[nH]nc2-c2cc(F)c(F)cc21 [7,8-difluoro-5-(4-(trifluoromethyl)phenylsulfonyl)-4,5-dihydro-2H-pyrazolo[4,3-c]quinoline]",0.1 to 100 nM
2,"CC1c2c[nH]nc2-c2cc(Cl)sc2N1S(=O)(=O)c1ccc(C(F)(F)F)cc1 (centres unmarked) [7-chloro-4-methyl-5-(4-(trifluoromethyl)phenylsulfonyl)-4,5-dihydro-1H-pyrazolo[3,4-d]thieno[2,3-b]pyridine]",0.1 to 100 nM
3,"O=S(=O)(c1ccc(Cl)cc1)N1Cc2c[nH]nc2-c2cc(Cl)ccc21 [8-chloro-5-[(4-chlorophenyl)sulfonyl]-4,5-dihydro-2H-pyrazolo[4,3-c]quinoline]",501 to 1000 nM
4,"CC1c2c[nH]nc2-c2cc(F)ccc2N1S(=O)(=O)c1cn(C)cn1 (centres unmarked) [8-fluoro-4-methyl-5-(1-methyl-1H-imidazol-4-ylsulfonyl)-4,5-dihydro-1H-pyrazolo[4,3-c]quinoline]",1000 to 10000 nM
5,"CC1c2c[nH]nc2-c2cc(F)ccc2N1S(=O)(=O)c1cnn(C)c1 (centres unmarked) [8-fluoro-4-methyl-5-(1-methyl-1H-pyrazol-4-ylsulfonyl)-4,5-dihydro-1H-pyrazolo[4,3-c]quinoline]",101 to 500 nM
6,"CC1c2cn[nH]c2-c2cc(F)ccc2N1S(=O)(=O)c1ccc(-c2ccccn2)s1 (centres unmarked) [8-fluoro-4-methyl-5-(5-(pyridin-2-yl)thiophen-2-ylsulfonyl)-4,5-dihydro-1H-pyrazolo[4,3-c]quinoline]",1000 to 10000 nM
7,"CC1c2cn[nH]c2-c2cc(F)ccc2N1S(=O)(=O)c1ccccn1 (centres unmarked) [8-fluoro-4-methyl-5-(pyridin-2-ylsulfonyl)-4,5-dihydro-1H-pyrazolo[4,3-c]quinoline]",101 to 500 nM and 0.1 to 100 nM
8,"CC1c2cn[nH]c2-c2cc(F)ccc2N1S(=O)(=O)c1ccc(F)cc1 (centres unmarked) [8-fluoro-5-(4-fluorophenylsulfonyl)-4-methyl-4,5-dihydro-1H-pyrazolo[4,3-c]quinoline]",0.1 to 100 nM
9,"Nc1ccc(S(=O)(=O)N2c3cc(F)c(F)cc3-c3[nH]ncc3[C@H]2C2CC2)cc1 [(R)-4-(4-cyclopropyl-7,8-difluoro-1H-pyrazolo[4,3-c]quinolin-5(4H)-ylsulfonyl)aniline]",0.1 to 100 nM
10,"O=S(=O)(c1ccc(OC(F)F)cc1)N1c2cc(F)c(F)cc2-c2[nH]ncc2[C@H]1C1CC1 [(R)-4-cyclopropyl-5-(4-(difluoromethoxy)phenylsulfonyl)-7,8-difluoro-4,5-dihydro-1H-pyrazolo[4,3-c]quinoline]",0.1 to 100 nM
11,"O=[N+]([O-])c1ccc(S(=O)(=O)N2c3cc(F)c(F)cc3-c3[nH]ncc3[C@H]2C2CC2)cc1 [(R)-4-cyclopropyl-7,8-difluoro-5-(4-nitrophenylsulfonyl)-4,5-dihydro-1H-pyrazolo[4,3-c]quinoline]",0.1 to 100 nM
12,"O=S(=O)(c1ccc(OC(F)(F)F)cc1)N1c2cc(OC(F)(F)F)ccc2-c2n[nH]cc2[C@H]1C1CC1 [(R)-4-cyclopropyl-7-(trifluoromethoxy)-5-(4-(trifluoromethoxy)phenylsulfonyl)-4,5-dihydro-2H-pyrazolo[4,3-c]quinoline]",0.1 to 100 nM
13,"O=S(=O)(c1ccc(C(F)(F)F)nc1)N1c2cc(OC(F)(F)F)ccc2-c2n[nH]cc2[C@H]1C1CC1 [(R)-4-cyclopropyl-7-(trifluoromethoxy)-5-(6-(trifluoromethyl)pyridin-3-ylsulfonyl)-4,5-dihydro-2H-pyrazolo[4,3-c]quinoline]",0.1 to 100 nM
14,"O=S(=O)(c1ccc(C(F)(F)F)nc1)N1c2cc(C(F)(F)F)ccc2-c2[nH]ncc2[C@H]1C1CC1 [(R)-4-cyclopropyl-7-(trifluoromethyl)-5-(6-(trifluoromethyl)pyridin-3-ylsulfonyl-4,5-dihydro-1H-pyrazolo[4,3-c]quinoline]",0.1 to 100 nM
15,"O=S(=O)(c1ccc(C(F)(F)F)nc1)N1c2ccc(C(F)(F)F)cc2-c2[nH]ncc2[C@H]1C1CC1 [(R)-4-cyclopropyl-8-(trifluoromethyl)-5-(6-(trifluoromethyl)pyridin-3-ylsulfonyl)-4,5-dihydro-1H-pyrazolo[4,3-c]quinoline]",0.1 to 100 nM
16,"O=S(=O)(c1ccc(OC(F)(F)F)cc1)N1c2ccc(F)cc2-c2[nH]ncc2[C@H]1C1CC1 [(R)-4-cyclopropyl-8-fluoro-5-(4-(trifluoromethoxy)phenylsulfonyl)-4,5-dihydro-1H-pyrazolo[4,3-c]quinoline]",0.1 to 100 nM
17,"COc1ccc(S(=O)(=O)N2c3ccc(F)cc3-c3[nH]ncc3[C@H]2C2CC2)cc1 [(R)-4-cyclopropyl-8-fluoro-5-(4-methoxyphenylsulfonyl)-4,5-dihydro-1H-pyrazolo[4,3-c]quinoline]",0.1 to 100 nM
